Results from BindingDB's records for doi:10.3109/14756366.2010.486794 (University of Lisbon, 2011).

Molecular target: T1, Neutrophil elastase (Homo sapiens, UniProt P08246)
T1 sequence (P08246 whole entry): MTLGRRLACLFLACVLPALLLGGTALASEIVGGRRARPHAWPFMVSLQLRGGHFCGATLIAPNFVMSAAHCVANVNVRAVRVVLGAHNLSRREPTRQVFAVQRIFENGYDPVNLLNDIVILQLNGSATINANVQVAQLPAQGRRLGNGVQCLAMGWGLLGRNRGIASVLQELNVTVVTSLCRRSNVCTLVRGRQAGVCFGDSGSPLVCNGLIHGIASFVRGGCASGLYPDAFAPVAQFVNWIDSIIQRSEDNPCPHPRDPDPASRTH
Assay: Enzyme Kinetic Assay
Conditions: 25 °C
Experimental: The inhibition of the HLE was studied at 25°C by continuously monitoring the absorbance at 410 nm for 20 min of a solution prepared by mixing 10 μL of HLE stock solution (2 μM in 0.05M acetate buffer, pH 5.5) with a solution containing 10 μL of 5 in DMSO, 20 μL of MeOSuc-Ala-Ala-Pro-Val-p-NA (50 mM in DMSO) and 960 μL of 0.1M pH 7.2 HEPES buffer. Control assays, in which the inhibitor was omitted, ran linearly.

Ki: 0.63 nM
SMILES: CCC1(CC)C(=O)N(c2ccc(CS(=O)(=O)c3ccccc3)cc2)C1=O [4-oxo-β-lactam (3)]
